The test system of this test is P388 leukemia ip, CD2F1 mice, survival T/C. Kind of test: NCI In Vivo Anticancer Drug Screen. Data for tumor model P388 Leukemia (intraperitoneal) in CD2F1 (CDF1) mice. As to conditions: endpoint: median survival time, higher = longer survival. A digest of the protocol: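 Mice carrying the transplanted tumor received test compound or vehicle. Survival was recorded in each group, and the value is the treated-group measurement divided by that of the vehicle-treated control group.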

Where [1] appears, read: dose: 100.0 mg/kg/injection, schedule: Q01DX009 (ip), vehicle: saline.
Where [2] appears, read: dose: 200.0 mg/kg/injection, schedule: Q01DX009 (ip), vehicle: saline.
Setting [3] is: dose: 100.0 mg/kg/injection, schedule: Q01DX001 (ip), vehicle: saline.
Where [4] appears, read: dose: 200.0 mg/kg/injection, schedule: Q01DX001 (ip), vehicle: saline.
[5] abbreviates: dose: 400.0 mg/kg/injection, schedule: Q01DX001 (ip), vehicle: saline.
[6] abbreviates: dose: 50.0 mg/kg/injection, schedule: Q01DX009 (ip), vehicle: saline with Tween-80.
Where [7] appears, read: dose: 100.0 mg/kg/injection, schedule: Q01DX009 (ip), vehicle: saline with Tween-80.
The mark [8] stands for this setting: dose: 200.0 mg/kg/injection, schedule: Q01DX009 (ip), vehicle: saline with Tween-80.
The mark [9] stands for this setting: dose: 100.0 mg/kg/injection, schedule: Q01DX001 (ip), vehicle: Klucel (hydroxypropylcellulose) (HPC).
Setting [10] is: dose: 50.0 mg/kg/injection, schedule: Q04DX003 (ip), vehicle: saline with Tween-80.
[11] abbreviates: dose: 60.0 mg/kg/injection, schedule: Q01DX005 (ip), vehicle: Klucel (hydroxypropylcellulose) (HPC).
Setting [12] is: dose: 120.0 mg/kg/injection, schedule: Q01DX005 (ip), vehicle: Klucel (hydroxypropylcellulose) (HPC).
[13] abbreviates: dose: 240.0 mg/kg/injection, schedule: Q01DX005 (ip), vehicle: Klucel (hydroxypropylcellulose) (HPC).

Where “and” joins values, the source holds several entries; their conditions need not be identical. Equal values may be shown once. Toxic doses and inconclusive results are not listed.

The results in this text go back to PubChem BioAssay AID330 (DTP/NCI, 2004).

As to `O=C1C=CC(=O)C(CC2CCCC2C2=CC(=O)C=CC2=O)=C1` (stereo not given), the T/C (dose: 6.25 mg/kg/injection, schedule: Q04DX002 (ip), vehicle: saline with Tween-80) was 109 % of control; the T/C (dose: 12.5 mg/kg/injection, schedule: Q04DX002 (ip), vehicle: saline with Tween-80) was 101 % of control; the T/C (dose: 25.0 mg/kg/injection, schedule: Q04DX002 (ip), vehicle: saline with Tween-80) was 99 % of control and 109 % of control.

As for `CCCCCC(C)(Cl)CCCCC`, the T/C is, setting by setting: under setting [1], 101 % of control; under setting [2], 106 % of control; (dose: 400.0 mg/kg/injection, schedule: Q01DX009 (ip), vehicle: saline) 106 % of control.

With `C=C1CC[C@H]2C(C)=CC[C@@H]3[C@H](OC(=O)[C@H]3CN(C)C)[C@@H]12`, the T/C is 98 % of control under setting [3], 104 % of control under setting [4] and 105 % of control under setting [5].

In the case of `CC([NH-])C[NH-].CC([NH-])C[NH-].CC([NH-])C[NH-].[Co]` (stereo not given), the T/C is, setting by setting: (dose: 12.5 mg/kg/injection, schedule: Q04DX003 (ip), vehicle: water) 91 % of control; (dose: 25.0 mg/kg/injection, schedule: Q04DX003 (ip), vehicle: water) 94 % of control; (dose: 50.0 mg/kg/injection, schedule: Q04DX003 (ip), vehicle: water) 94 % of control; (dose: 100.0 mg/kg/injection, schedule: Q04DX003 (ip), vehicle: water) 90 % of control.

For the molecule `CC(=O)N1CN2CN(C1)CN(C(C)=O)C2`, the T/C is 105 % of control under setting [3], 104 % of control under setting [4] and 107 % of control under setting [5].

`COc1cc(CC2COCC2Cc2ccc3c(c2)OCO3)cc(OC)c1OC` (stereo not given): the T/C was 101 % of control and 103 % of control (dose: 1.25 mg/kg/injection, schedule: Q04DX002 (ip), vehicle: acetone); 101 % of control and 96 % of control and 104 % of control (dose: 2.5 mg/kg/injection, schedule: Q04DX002 (ip), vehicle: acetone); 93 % of control and 96 % of control and 103 % of control (dose: 5.0 mg/kg/injection, schedule: Q04DX002 (ip), vehicle: acetone).

On to `O=C(O)C1CCN1` (stereo not given), for which the T/C is, setting by setting: under setting [1], 93 % of control; under setting [2], 86 % of control; (dose: 300.0 mg/kg/injection, schedule: Q01DX009 (ip), vehicle: saline) 86 % of control.

Consider `ICC1Cc2ccccc2O1` (stereo not given), for which the T/C under setting [6] is 99 % of control, the T/C under setting [7] is 101 % of control and the T/C under setting [8] was 103 % of control.

Turning to `NC(=O)c1c(N)nn2c(-c3ccccc3)cc(-c3ccccc3)cc12`, the T/C runs as follows: under setting [9], 86 % of control; (dose: 400.0 mg/kg/injection, schedule: Q01DX001 (ip), vehicle: Klucel (hydroxypropylcellulose) (HPC)) 94 % of control.

Turning to `COc1cc(C[C@H]2c3cc(OC)c(OC)c(O)c3CCN2C)c(Oc2cc3c(cc2OC)-c2c(OC)c(OC)c(OC)c4c2C(C3)N(C)CC4)cc1OC` (stereo not given in full) (tested in a mixture with another compound), the T/C is 103 % of control (dose: 8.75 mg/kg/injection, schedule: Q01DX005 (ip), vehicle: Klucel (hydroxypropylcellulose) (HPC)); 99 % of control (dose: 17.5 mg/kg/injection, schedule: Q01DX005 (ip), vehicle: Klucel (hydroxypropylcellulose) (HPC)); 96 % of control (dose: 35.0 mg/kg/injection, schedule: Q01DX005 (ip), vehicle: Klucel (hydroxypropylcellulose) (HPC)); 94 % of control (dose: 70.0 mg/kg/injection, schedule: Q01DX005 (ip), vehicle: Klucel (hydroxypropylcellulose) (HPC)).

`CN1CCCC2C(c3ccccc3)C(C3=NCCCC3)C(c3ccccc3)CC21` (stereo not given): the T/C (dose: 25.0 mg/kg/injection, schedule: Q01DX009 (ip), vehicle: saline with Tween-80) is 100 % of control; the T/C (dose: 25.0 mg/kg/injection, schedule: Q04DX003 (ip), vehicle: saline with Tween-80) is 113 % of control; the T/C under setting [6] was 100 % of control; the T/C under setting [10] was 100 % of control; the T/C under setting [7] is 104 % of control; the T/C (dose: 100.0 mg/kg/injection, schedule: Q04DX003 (ip), vehicle: saline with Tween-80) was 100 % of control.

Turning to `O=C(O)CCc1c(-c2ccccc2)c(-c2ccccc2)c2n1CCC2`, the T/C is 98 % of control (dose: 100.0 mg/kg/injection, schedule: Q01DX001 (ip), vehicle: saline with Tween-80); 100 % of control (dose: 200.0 mg/kg/injection, schedule: Q01DX001 (ip), vehicle: saline with Tween-80); 97 % of control (dose: 400.0 mg/kg/injection, schedule: Q01DX001 (ip), vehicle: saline with Tween-80).

For the molecule `O=C1CCC(=O)N1CN(Cc1ccccc1)Cc1ccccc1`, the T/C by setting is: under setting [11], 100 % of control; under setting [12], 97 % of control; under setting [13], 103 % of control.

In the case of `C(=NC12CC3CC(CC(C3)C1)C2)C12CC3CC(CC(C3)C1)C2`, the T/C under setting [6] is 99 % of control, the T/C under setting [7] was 102 % of control and the T/C under setting [8] was 96 % of control.

On to `O=c1cc(CCl)[nH]nc1CCl`, for which the T/C is 160 % of control (dose: 14.5 mg/kg/injection, schedule: Q04DX003 (ip), vehicle: saline with Tween-80); 158 % of control (dose: 33.0 mg/kg/injection, schedule: Q04DX003 (ip), vehicle: saline with Tween-80); 173 % of control under setting [10].

Take `C=CC1CCCC[N+]1(C)Cc1ccccc1` (stereo not given): the T/C is 94 % of control (dose: 6.25 mg/kg/injection, schedule: Q01DX005 (ip), vehicle: saline) and 98 % of control (dose: 12.5 mg/kg/injection, schedule: Q01DX005 (ip), vehicle: saline).

In the case of `COP(=O)(OC)C(=[N+]=[N-])P(=O)(OC(C)C)OC(C)C`, the T/C is 99 % of control under setting [3], 101 % of control under setting [4] and 100 % of control under setting [5].

For `CCCC(OC(=O)c1ccc([N+](=O)[O-])cc1)C(=O)O` (stereo not given), the T/C (dose: 25.0 mg/kg/injection, schedule: Q01DX001 (ip), vehicle: Klucel (hydroxypropylcellulose) (HPC)) is 95 % of control; the T/C (dose: 50.0 mg/kg/injection, schedule: Q01DX001 (ip), vehicle: Klucel (hydroxypropylcellulose) (HPC)) was 105 % of control; the T/C under setting [9] was 100 % of control.

`CCN(CC)C1=C2/C=CC3=C2\C(=C/C=C\C=C/1C)CC3=O`: the T/C by setting is: under setting [11], 95 % of control; under setting [12], 98 % of control; under setting [13], 96 % of control.

`CCCN1CC=CCC1`: the T/C reads like this: (dose: 60.0 mg/kg/injection, schedule: Q01DX005 (ip), vehicle: saline) 100 % of control; (dose: 120.0 mg/kg/injection, schedule: Q01DX005 (ip), vehicle: saline) 100 % of control; (dose: 240.0 mg/kg/injection, schedule: Q01DX005 (ip), vehicle: saline) 100 % of control.

As for `CC(C)COC(=O)NC1c2ccccc2Oc2ccccc21`, the T/C reads like this: (dose: 50.0 mg/kg/injection, schedule: Q01DX005 (ip), vehicle: saline with Tween-80) 95 % of control; (dose: 100.0 mg/kg/injection, schedule: Q01DX005 (ip), vehicle: saline with Tween-80) 93 % of control; (dose: 200.0 mg/kg/injection, schedule: Q01DX005 (ip), vehicle: saline with Tween-80) 89 % of control.

For `CN(CCl)S(=O)(=O)c1ccccc1`, the T/C by setting is: under setting [7], 90 % of control; under setting [8], 100 % of control; (dose: 400.0 mg/kg/injection, schedule: Q01DX009 (ip), vehicle: saline with Tween-80) 105 % of control.

In the case of `CC(C)C(=O)C(O)C(C)C` (stereo not given), the T/C (dose: 50.0 mg/kg/injection, schedule: Q01DX005 (ip), vehicle: saline) was 92 % of control; the T/C (dose: 100.0 mg/kg/injection, schedule: Q01DX005 (ip), vehicle: saline) was 103 % of control; the T/C (dose: 200.0 mg/kg/injection, schedule: Q01DX005 (ip), vehicle: saline) is 100 % of control.

With `CCCOC1C=C(C)C(=O)O1` (stereo not given), the T/C is 103 % of control (dose: 40.5 mg/kg/injection, schedule: Q01DX005 (ip), vehicle: saline with Tween-80); 104 % of control (dose: 81.0 mg/kg/injection, schedule: Q01DX005 (ip), vehicle: saline with Tween-80); 112 % of control (dose: 162.0 mg/kg/injection, schedule: Q01DX005 (ip), vehicle: saline with Tween-80).
